For 8 cell lines, relative viability results are on record in the supplement of paper PMC10307832.

Assay in all cases: relative viability (nuclei count vs DMSO), 5 days (fraction); higher = more cells survive
Compound in experiment [1]: Cc1nc(C(=O)NCC(=O)O)c(O)c2ccc(Oc3ccccc3)cc12 [FG-4592] + NC(=O)Nc1cc(-c2cccc(F)c2)sc1C(=O)N[C@H]1CCCNC1 [AZD7762] (partner 0.2 µM)
Put shortly:
(§1)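 Lung cancer cell lines, seeded in 1536-well plates, were treated the following day by pin tool with a single drug or with five library-drug doses (not always all listed) in √10 steps on top of a fixed anchor-drug dose. Cells were fixed and nuclei stained in one step after 5 days, and nuclei were counted. Relative viability is the nuclei count for treated wells divided by that for vehicle wells, reported as medians of duplicate plates.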

Compound in experiment [2]: Cc1nc(C(=O)NCC(=O)O)c(O)c2ccc(Oc3ccccc3)cc12 [FG-4592] + CS(=O)(=O)CCNCc1ccc(-c2ccc3ncnc(Nc4ccc(OCc5cccc(F)c5)c(Cl)c4)c3c2)o1 [Lapatinib] (partner 2 µM)
The procedure, abridged: as §1

Compound in experiment [3]: Cc1nc(C(=O)NCC(=O)O)c(O)c2ccc(Oc3ccccc3)cc12 [FG-4592] + CCNC(=O)c1noc(-c2cc(C(C)C)c(O)cc2O)c1-c1ccc(CN2CCOCC2)cc1 [Luminespib] (partner 0.01 µM)
The procedure, abridged: as §1

Compound in experiment [4]: CC1=CC(=C(N1C2=CC=C(C=C2)Cl)C)C(=O)CN3CCCCC3 [IU1-47] + COc1cccc2cc(-c3nc([C@H]4CC[C@H](C(=O)O)CC4)n4ncnc(N)c34)[nH]c12 [OSI-027] (partner 0.5 µM)
Put shortly: as §1

Consider 201T, for which the relative viability was determined as 0.579 in experiment [1] (first compound 0.08 µM); 0.595 in experiment [1] (first compound 0.253 µM); 0.453 in experiment [1] (first compound 0.8 µM); 0.559 in experiment [1] (first compound 2.53 µM); 0.555 in experiment [1] (first compound 8 µM); 0.976 in experiment [2] (first compound 0.08 µM). Also, the relative viability in experiment [2] (first compound 0.253 µM) turned out to be 1.03; in experiment [2] (first compound 0.8 µM) it was 0.931; in experiment [2] (first compound 2.53 µM), 1.04; in experiment [2] (first compound 8 µM), 1.01; in experiment [3] (first compound 0.08 µM), 1.04; in experiment [3] (first compound 0.253 µM), 0.984. The relative viability stood at 1.06 in experiment [3] (first compound 0.8 µM); 1.03 in experiment [3] (first compound 2.53 µM); 1.06 in experiment [3] (first compound 8 µM); 0.747 in experiment [4] (first compound 0.08 µM); 0.784 in experiment [4] (first compound 0.253 µM); 0.886 in experiment [4] (first compound 0.8 µM). For the same cell line, the relative viability in experiment [4] (first compound 2.53 µM) came to 0.813; in experiment [4] (first compound 8 µM), 0.832.

With A549, the relative viability in experiment [2] (first compound 0.08 µM) was 0.917; in experiment [2] (first compound 0.253 µM) it was 0.975; in experiment [2] (first compound 0.8 µM), 1.03; in experiment [2] (first compound 2.53 µM) it was 1.07; in experiment [2] (first compound 8 µM), 0.946.

For the cell line A-427, the relative viability in experiment [1] (first compound 0.08 µM) is 0.757; in experiment [1] (first compound 0.253 µM), 0.777; in experiment [1] (first compound 0.8 µM), 0.665; in experiment [1] (first compound 2.53 µM), 0.773; in experiment [1] (first compound 8 µM), 0.717; in experiment [2] (first compound 0.08 µM), 0.975. Moreover, the relative viability in experiment [2] (first compound 0.253 µM) came out at 1.05; in experiment [2] (first compound 0.8 µM) it was 0.943; in experiment [2] (first compound 2.53 µM), 0.953; in experiment [2] (first compound 8 µM) it was 1.03; in experiment [3] (first compound 0.08 µM) it was 0.912; in experiment [3] (first compound 0.253 µM), 0.926. Moreover, the relative viability in experiment [3] (first compound 0.8 µM) was 0.89; in experiment [3] (first compound 2.53 µM), 1.18; in experiment [3] (first compound 8 µM) it was 1; in experiment [4] (first compound 0.08 µM), 0.454; in experiment [4] (first compound 0.253 µM), 0.472; in experiment [4] (first compound 0.8 µM), 0.453. The relative viability in experiment [4] (first compound 8 µM) was 0.463.

Consider ABC-1, for which the relative viability was 0.665 in experiment [1] (first compound 0.08 µM); 0.762 in experiment [1] (first compound 0.253 µM); 0.794 in experiment [1] (first compound 0.8 µM); 1.09 in experiment [1] (first compound 2.53 µM); 0.693 in experiment [1] (first compound 8 µM); 1.11 in experiment [2] (first compound 0.08 µM). The relative viability in experiment [2] (first compound 0.253 µM) is 1.11; in experiment [2] (first compound 0.8 µM) it was 1.06; in experiment [2] (first compound 2.53 µM) it was 1.08; in experiment [2] (first compound 8 µM), 0.801; in experiment [3] (first compound 0.08 µM) it was 0.501; in experiment [3] (first compound 0.253 µM), 0.515. Moreover, the relative viability in experiment [3] (first compound 2.53 µM) is 0.413; in experiment [3] (first compound 8 µM), 0.42; in experiment [4] (first compound 0.08 µM), 0.462; in experiment [4] (first compound 0.253 µM), 0.504; in experiment [4] (first compound 0.8 µM), 0.43; in experiment [4] (first compound 8 µM), 0.379.

On to BEN, for which the relative viability in experiment [1] (first compound 0.08 µM) is 0.555; in experiment [1] (first compound 0.253 µM), 0.617; in experiment [1] (first compound 0.8 µM) it was 0.476; in experiment [1] (first compound 2.53 µM) it was 0.666; in experiment [1] (first compound 8 µM) it was 0.527; in experiment [2] (first compound 0.08 µM) it was 0.495. In addition, the relative viability in experiment [2] (first compound 0.253 µM) was 0.507; in experiment [2] (first compound 0.8 µM), 0.555; in experiment [2] (first compound 2.53 µM), 0.822; in experiment [2] (first compound 8 µM), 0.475; in experiment [3] (first compound 0.08 µM) it was 0.337; in experiment [3] (first compound 0.253 µM), 0.386. Besides, the relative viability in experiment [3] (first compound 0.8 µM) is 0.39; in experiment [3] (first compound 2.53 µM) it was 0.437; in experiment [3] (first compound 8 µM), 0.218; in experiment [4] (first compound 0.08 µM) it was 0.294; in experiment [4] (first compound 0.253 µM), 0.302; in experiment [4] (first compound 0.8 µM), 0.296. For the same cell line, the relative viability in experiment [4] (first compound 8 µM) came out at 0.268.

Regarding CAL-12T, the relative viability in experiment [1] (first compound 0.08 µM) was determined as 0.594; in experiment [1] (first compound 0.253 µM), 0.59; in experiment [1] (first compound 0.8 µM), 0.513; in experiment [1] (first compound 2.53 µM), 0.523; in experiment [1] (first compound 8 µM), 0.717; in experiment [2] (first compound 0.08 µM) it was 0.646. Also, the relative viability was 0.599 in experiment [2] (first compound 0.253 µM); 0.492 in experiment [2] (first compound 0.8 µM); 0.647 in experiment [2] (first compound 2.53 µM); 0.667 in experiment [2] (first compound 8 µM); 0.212 in experiment [3] (first compound 0.08 µM); 0.458 in experiment [3] (first compound 0.253 µM). The relative viability worked out at 0.129 in experiment [3] (first compound 0.8 µM); 0.375 in experiment [3] (first compound 2.53 µM); 0.689 in experiment [3] (first compound 8 µM); 0.764 in experiment [4] (first compound 0.08 µM); 0.635 in experiment [4] (first compound 0.253 µM); 0.675 in experiment [4] (first compound 0.8 µM). Besides, the figures for the relative viability in experiment [4] (first compound 2.53 µM) and in experiment [4] (first compound 8 µM) were 0.631 and 0.683, respectively.

On to COR-L23, for which the relative viability was determined as 0.906 in experiment [2] (first compound 0.08 µM); 0.914 in experiment [2] (first compound 0.253 µM); 0.965 in experiment [2] (first compound 0.8 µM); 0.838 in experiment [2] (first compound 2.53 µM); 0.81 in experiment [2] (first compound 8 µM); 0.757 in experiment [3] (first compound 0.08 µM). The relative viability in experiment [3] (first compound 0.253 µM) was 0.524; in experiment [3] (first compound 0.8 µM), 0.645; in experiment [3] (first compound 2.53 µM) it was 0.611; in experiment [3] (first compound 8 µM), 0.593; in experiment [4] (first compound 0.08 µM) it was 0.831; in experiment [4] (first compound 0.253 µM), 0.977. The figures for the relative viability in experiment [4] (first compound 0.8 µM), in experiment [4] (first compound 2.53 µM) and in experiment [4] (first compound 8 µM) were 0.845, 0.901 and 0.563, respectively.

Consider COR-L 105, for which the relative viability in experiment [2] (first compound 0.08 µM) was 0.348; in experiment [2] (first compound 0.253 µM), 0.342; in experiment [2] (first compound 0.8 µM) it was 0.264; in experiment [2] (first compound 2.53 µM), 0.382; in experiment [2] (first compound 8 µM) it was 0.329; in experiment [3] (first compound 0.08 µM) it was 0.779. The relative viability in experiment [3] (first compound 0.253 µM) stood at 0.696; in experiment [3] (first compound 0.8 µM), 0.752; in experiment [3] (first compound 2.53 µM) it was 0.847; in experiment [3] (first compound 8 µM), 0.776; in experiment [4] (first compound 0.08 µM), 0.746; in experiment [4] (first compound 0.253 µM), 0.634. The relative viability is 0.711 in experiment [4] (first compound 0.8 µM), 0.581 in experiment [4] (first compound 2.53 µM) and 0.57 in experiment [4] (first compound 8 µM).
